pEC50: −log10 of the molar value.

In the first test the test system is Eotaxin-3 (CCL26) release in human whole blood stimulated with IL-4. As to the kind of experiment: Human whole blood eotaxin-3 assay (IL-4 stimulated eotaxin-3 release). It is filed as cell-based. As to conditions: Homo sapiens, 48 h, human whole blood stimulated with recombinant human IL-4, 48 h; given for test compounds with <80% Emax; geometric mean. The essentials:
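Lithium-heparin human whole blood was preincubated with compound (4-fold serial dilution, 0.5% DMSO final) for 2 h at 37° C, then stimulated with recombinant human IL-4 at […] final for 48 h. Eotaxin-3 (CCL26) in the supernatant was measured by MSD immunoassay.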
As a reminder, the Emax is the size of the effect at its maximum, as opposed to the concentration needed. On to `[2H]C([2H])([2H])N(C(=O)c1ccc(C2CCN([C@@H](C)c3cc4c(-n5c(F)cc(NC)cc5=O)ccnc4n3C)CC2)cc1)C([2H])([2H])[2H]` [Example 1m97, 4-(1-((1S)-1-(4-(6-fluoro-4-(methylamino)-2-oxopyridin-1 (2H)-yl)-1-methyl-1H-pyrrolo[2,3-b]pyridin-2-yl)ethyl)piperidin-4-yl)-N,N-bis(methyl-d3)benzamide], for which the Emax fell in the range of 10 to 20%.

Still in this test, the particulars now being: Homo sapiens, 48 h, human whole blood stimulated with recombinant human IL-4, 48 h; inhibition of eotaxin-3 release; given for test compounds with >80% Emax; geometric mean.
For orientation: pEC50 means −log10 of the EC50, conventionally taken in molar units. Regarding `[2H]C([2H])([2H])N(C(=O)c1cc(C)c(C2=CCN(Cc3cc4c(-n5ccc(N)c(C)c5=O)ccnc4n3C)CC2)c(F)c1)C([2H])([2H])[2H]` [Example 1m94, 4-(1-((4-(4-amino-3-methyl-2-oxopyridin-1 (2H)-yl)-1-methyl-1H-pyrrolo[2,3-b]-pyridin-2-yl)methyl)-1,2,3,6-tetrahydropyridin-4-yl)-3-fluoro-5-methyl-N,N-bis(methyl-d3)benzamide], the negative-log EC50 (pEC50) is 8.18. Still for that read-out and setting: to `CNc1ccn(-c2ccnc3c2cc(CN2CCC(c4c(F)cc(C(=O)N(C)C)cc4F)CC2)n3C)c(=O)n1` [Example 1m95, 3,5-difluoro-N,N-dimethyl-4-(1-((1-methyl-4-(4-(methylamino)-2-oxopyrimidin-1 (2H)-yl)-1H-pyrrolo[2,3-b]pyridin-2-yl)methyl)piperidin-4-yl)benzamide] belongs 7.35. For the molecule `[2H]C([2H])([2H])N(C(=O)c1cc(C)c(C2=CCN(Cc3cc4c(-n5ccc(NC)nc5=O)ccnc4n3C)CC2)c(F)c1)C([2H])([2H])[2H]` [Example 1m96, 3-fluoro-5-methyl-N,N-bis(methyl-d3)-4-(1-((1-methyl-4-(4-(methylamino)-2-oxopyrimidin-1 (2H)-yl)-1H-pyrrolo[2,3-b]pyridin-2-yl)methyl)-1,2,3,6-tetrahydropyridin-4-yl)benzamide], the pEC50 was 8.45. `[2H]C([2H])([2H])N(C(=O)c1cc(F)c(C2=CCN(Cc3cc4c(-n5ccc(NC)cc5=O)ccnc4n3C)CC2)c(F)c1)C([2H])([2H])[2H]` [Example 1m98, 3,5-difluoro-N,N-bis(methyl-d3)-4-(1-((1-methyl-4-(4-(methylamino)-2-oxopyridin-1 (2H)-yl)-1H-pyrrolo[2,3-b]pyridin-2-yl)methyl)-1,2,3,6-tetrahydropyridin-4-yl)benzamide]: the pEC50 was 7.65.

For `Cc1cc(C(=O)N(C)C)cc(F)c1C1=CCN(Cc2cc3c(-n4ccc5c(c4=O)CCN5)ccnc3n2C)CC1` [Example 1m101, 3-fluoro-N,N,5-trimethyl-4-(1-((1-methyl-4-(4-oxo-1,2,3,4-tetrahydro-5H-pyrrolo[3,2-c]pyridin-5-yl)-1H-pyrrolo[2,3-b]pyridin-2-yl)methyl)-1,2,3,6-tetrahydropyridin-4-yl)benzamide], the pEC50 is 8.52. Still for that read-out and setting: to `[2H]C([2H])([2H])N(C(=O)c1cc(F)c(C2CCN(Cc3cc4c(-n5ccc(NC)cc5=O)ccnc4n3C)CC2)c(F)c1)C([2H])([2H])[2H]` [Example 1m102, 3,5-difluoro-N,N-bis(methyl-d3)-4-(1-((1-methyl-4-(4-(methylamino)-2-oxopyridin-1 (2H)-yl)-1H-pyrrolo[2,3-b]pyridin-2-yl)methyl)piperidin-4-yl)benzamide] belongs 7.63; to `Cc1cc(C(=O)N(C)C)cc(F)c1C1CCN(Cc2cc3c(-n4ccc5c(c4=O)CCN5)ccnc3n2C)CC1` [Example 1m103, 3-fluoro-N,N,5-trimethyl-4-(1-((1-methyl-4-(4-oxo-1,2,3,4-tetrahydro-5H-pyrrolo[3,2-c]pyridin-5-yl)-1H-pyrrolo[2,3-b]pyridin-2-yl)methyl)piperidin-4-yl)benzamide], 7.57; to `CNc1ccn(-c2ccnc3c2cc(CN2CC=C(c4c(C)cc(C(=O)N(C)C)cc4F)CC2)n3C)c(=O)c1C` [Example 1m104, 3-fluoro-N,N,5-trimethyl-4-(1-((1-methyl-4-(3-methyl-4-(methylamino)-2-oxopyridin-1 (2H)-yl)-1H-pyrrolo[2,3-b]pyridin-2-yl)methyl)-1,2,3,6-tetrahydropyridin-4-yl)benzamide], 6.81. On the same count and under the same terms, with `CNc1ccn(-c2ccnc3c2cc([C@H](C)N2CC=C(c4c(C)cc(C(=O)N(C)C)cc4F)CC2)n3C)c(=O)n1` [Example 1m106, (S)-3-fluoro-N,N,5-trimethyl-4-(1-(1-(1-methyl-4-(4-(methylamino)-2-oxopyrimidin-1 (2H)-yl)-1H-pyrrolo[2,3-b]pyridin-2-yl)ethyl)-1,2,3,6-tetrahydropyridin-4-yl)benzamide] the figure was 8.53; with `CN(C)C(=O)c1cc(F)c(C2=CCN(Cc3cc4c(-n5ccc6c(c5=O)CCN6)ccnc4n3C)CC2)c(F)c1` [Example 1m107, 3,5-difluoro-N,N-dimethyl-4-(1-((1-methyl-4-(4-oxo-1,2,3,4-tetrahydro-5H-pyrrolo[3,2-c]pyridin-5-yl)-1H-pyrrolo[2,3-b]pyridin-2-yl)methyl)-1,2,3,6-tetrahydropyridin-4-yl)benzamide], 7.62; with `CNc1ccn(-c2ccnc3c2cc([C@@H](C)N2CCC(c4c(C)cc(C(=O)N(C)C)cc4F)CC2)n3C)c(=O)c1` [Example 1m108, (R)-3-fluoro-N,N,5-trimethyl-4-(1-(1-(1-methyl-4-(4-(methylamino)-2-oxopyridin-1 (2H)-yl)-1H-pyrrolo[2,3-b]pyridin-2-yl)ethyl)piperidin-4-yl)benzamide], 6.50. With `CNc1ccn(-c2ccnc3c2cc([C@H](C)N2CCC(c4c(C)cc(C(=O)N(C)C)cc4F)CC2)n3C)c(=O)c1` [Example 1m109, (S)-3-fluoro-N,N,5-trimethyl-4-(1-(1-(1-methyl-4-(4-(methylamino)-2-oxopyridin-1 (2H)-yl)-1H-pyrrolo[2,3-b]pyridin-2-yl)ethyl)piperidin-4-yl)benzamide], the negative-log EC50 (pEC50) was 7.97.

In the case of `CN(C)C(=O)c1cc(F)c(C2CCN(Cc3cc4c(-n5ccc6c(c5=O)CCN6)ccnc4n3C)CC2)c(F)c1` [Example 1m110, 3,5-difluoro-N,N-dimethyl-4-(1-((1-methyl-4-(4-oxo-1,2,3,4-tetrahydro-5H-pyrrolo[3,2-c]pyridin-5-yl)-1H-pyrrolo[2,3-b]pyridin-2-yl)methyl)piperidin-4-yl)benzamide], the pEC50 is 7.82. The same measure, in the same setting: to `Cc1cc(C(=O)N(C)C)cc(F)c1C1=CCN([C@@H](C)c2cc3c(-n4cc(F)c(N)cc4=O)ccnc3n2C)CC1` [Example 1m111, (S)-4-(1-(1-(4-(4-amino-5-fluoro-2-oxopyridin-1 (2H)-yl)-1-methyl-1H-pyrrolo[2,3-b]pyridin-2-yl)ethyl)-1,2,3,6-tetrahydropyridin-4-yl)-3-fluoro-N,N,5-trimethylbenzamide] belongs 8.16; to `CN(C)C(=O)c1ccc(C2=CCN(Cc3cc4c(-n5ccc6c(c5=O)CCN6)ccnc4n3C)CC2)c(C2CC2)c1` [Example 1m113, cyclopropyl-N-dimethyl-4-(1-((1-methyl-4-(4-oxo-1,2,3,4-tetrahydro-5H-pyrrolo[3,2-c]pyridin-5-yl)-1H-pyrrolo[2,3-b]pyridin-2-yl)methyl)-1,2,3,6-tetrahydropyridin-4-yl)benzamide], 7.52. Same read-out and setting: with `[2H]C([2H])([2H])N(C(=O)c1cc(C)c(C2=CCN(Cc3cc4c(-n5ccc(NC)c(C)c5=O)ccnc4n3C)CC2)c(F)c1)C([2H])([2H])[2H]` [Example 1m114, 3-fluoro-5-methyl-N,N-bis(methyl-d3)-4-(1-((1-methyl-4-(3-methyl-4-(methylamino)-2-oxopyridin-1 (2H)-yl)-1H-pyrrolo[2,3-b]pyridin-2-yl)methyl)-1,2,3,6-tetrahydropyridin-4-yl)-benzamide] the figure was 6.73; with `[2H]C([2H])([2H])N(C(=O)c1cc(F)c(C2=CCN(Cc3cc4c(-n5ccc6c(c5=O)CCN6)ccnc4n3C)CC2)c(F)c1)C([2H])([2H])[2H]` [Example 1m115, 3,5-difluoro-N,N-bis(methyl-d3)-4-(1-((1-methyl-4-(4-oxo-1,2,3,4-tetrahydro-5H-pyrrolo[3,2-c]pyridin-5-yl)-1H-pyrrolo[2,3-b]pyridin-2-yl)methyl)-1,2,3,6-tetrahydropyridin-4-yl)benzamide], 7.69. The same measure, in the same setting: to `CNc1ccn(-c2ccnc3c2cc(CN2CCC(c4c(F)cc(C(=O)N(C)C)cc4F)CC2)n3C)c(=O)c1F` [Example 1m116, 3,5-difluoro-4-(1-((4-(3-fluoro-4-(methylamino)-2-oxopyridin-1 (2H)-yl)-1-methyl-1H-pyrrolo[2,3-b]pyridin-2-yl)methyl)piperidin-4-yl)-N,N-dimethylbenzamide] belongs 6.64. In the case of `[2H]C([2H])([2H])N(C(=O)c1cc(F)c(C2CCN(Cc3cc4c(-n5ccc6c(c5=O)CCN6)ccnc4n3C)CC2)c(F)c1)C([2H])([2H])[2H]` [Example 1m117, 3,5-difluoro-N,N-bis(methyl-d3)-4-(1-((1-methyl-4-(4-oxo-1,2,3,4-tetrahydro-5H-pyrrolo[3,2-c]pyridin-5-yl)-1H-pyrrolo[2,3-b]pyridin-2-yl)methyl)piperidin-4-yl)benzamide], the negative-log EC50 (pEC50) is 7.61. Still for that read-out and setting: to `CNc1nc(=O)n(-c2ccnc3c2cc(CN2CCC(c4c(F)cc(C(=O)N(C)C)cc4F)CC2)n3C)cc1F` [Example 1m118, 3,5-difluoro-4-(1-((4-(5-fluoro-4-(methylamino)-2-oxopyrimidin-1 (2H)-yl)-1-methyl-1H-pyrrolo[2,3-b]pyridin-2-yl)methyl)piperidin-4-yl)-N,N-dimethylbenzamide] belongs 7.26. `CN(C)C(=O)c1cc(F)c(C2CCN(Cc3cc4c(-n5cc(F)c(N)c(F)c5=O)ccnc4n3C)CC2)c(F)c1` [Example 1m119, 4-(1-((4-(4-amino-3,5-difluoro-2-oxopyridin-1 (2H)-yl)-1-methyl-1H-pyrrolo[2,3-b]pyridin-2-yl)methyl)piperidin-4-yl)-3,5-difluoro-N,N-dimethylbenzamide]: the pEC50 is 7.44.

The record behind these values is patent US20260001893A1, “SMALL MOLECULE MODULATORS OF STAT6” (Gilead Sciences, Inc., priority 2024, published 2026).
